# Test results reported in patent US20250034097A1, “MICROBIOCIDAL ISONICOTINIC AMIDE DERIVATIVES” (SYNGENTA CROP PROTECTION AG, priority 2021, published 2025).
# Legend:
# Glomerella lagenarium = Glomerella lagenarium syn Colletotrichum lagenarium (anthracnose), growth inhibition in nutrient broth; assay type: cell-based; conditions: Colletotrichum orbiculare, PDB broth, 24° C., 72 hours, photometric at 620 nm, compared to untreated control
# Procedure: (§1) Conidia of the fungus from cryogenic storage were directly mixed into nutrient broth (PDB potato dextrose broth). A DMSO solution of the test compounds was placed into a microtiter plate (96-well format) and the nutrient broth containing the fungal spores was added to it. The test plates were incubated at 24° C. and the inhibition of growth was determined photometrically after 72 hours at 620 nm.
# Monographella nivalis = Monographella nivalis syn. Microdochium nivale (snow mould, foot rot), growth inhibition in nutrient broth; assay type: cell-based; conditions: "at ppm" (concentration not given); PDB broth, 24° C., 72 hours, photometric at 620 nm; compared to untreated control
# Procedure: as §1
# Alternaria solani = Alternaria solani (early blight of tomato), tomato leaf disks, preventive; assay type: in vivo; conditions: 200 ppm, assessed 4 dpi, compared to untreated control
# Procedure: Alternaria solani (Early Blight of Tomato) Tomato leaf disks are placed on water agar in multiwell plates (24-well format) and sprayed with test solutions. After drying, the leaf disks are inoculated with a spore suspension of the fungus. After appropriate incubation the activity of a compound is assessed 4 dpi (days post inoculation) as preventive fungicidal activity.
# Pyrenophora teres = Pyrenophora teres (net blotch of barley), barley leaf segments, preventive; assay type: in vivo; conditions: 200 ppm, assessed 4 dpi, compared to untreated control
# Procedure: Barley leaf segments are placed on agar in multiwell plates (24-well format) and sprayed with test solutions. After drying, the leaf disks are inoculated with a spore suspension of the fungus. After appropriate incubation, the activity of a compound is assessed 4 dpi (days after inoculation) as preventive fungicidal activity.
# Sclerotinia sclerotiorum = Sclerotinia sclerotiorum (cottony rot, white mold), growth inhibition in nutrient broth; assay type: cell-based; conditions: 20 ppm; PDB broth, 24° C., 72 hours, photometric at 620 nm; compared to untreated control
# Procedure: as §1, with “Mycelial fragments” for “Conidia”, “fungus prepared” for “fungus”, “a fresh liquid culture” for “cryogenic storage”
compound,measurement,setting,value
"O=C(NCC(F)c1ccc(Cl)cc1Cl)c1cnncc1Oc1cccc(C2CC2)c1 (centres unmarked) [Compound 2.10, 5-(3-cyclopropylphenoxy)-N-[2-(2,4-dichlorophenyl)-2-fluoro-ethyl]pyridazine-4-carboxamide]",inhibition of growth at 20 ppm,Glomerella lagenarium,≥ 80%
"O=C(NCC(F)c1ccc(Cl)cc1Cl)c1c(Oc2cccc(C3CC3)c2)cnnc1C#CC1CC1 (centres unmarked) [Compound 2.6, 3-(2-cyclopropylethynyl)-5-(3-cyclopropylphenoxy)-N-[2-(2,4-dichlorophenyl)-2-fluoro-ethyl]pyridazine-4-carboxamide]",inhibition of growth at 20 ppm,Glomerella lagenarium,≥ 80%
"O=C(NCC(F)c1ccc(Cl)cc1Cl)c1c(Oc2cccc(C3CC3)c2)cnnc1O (centres unmarked) [Compound 2.15, 5-(3-cyclopropylphenoxy)-N-[2-(2,4-dichlorophenyl)-2-fluoro-ethyl]-3-hydroxy-pyridazine-4-carboxamide]",inhibition of growth at 20 ppm,Glomerella lagenarium,≥ 80%
"Cc1ncc(Oc2cccc(C3CC3)c2)c(C(=O)NCCc2ccc(Cl)cc2Cl)n1 [Compound 1.1, 5-(3-cyclopropylphenoxy)-N-[2-(2,4-dichlorophenyl)ethyl]-2-methyl-pyrimidine-4-carboxamide]",inhibition of growth at 20 ppm,Glomerella lagenarium,≥ 80%
"C=C(C)c1nncc(Oc2cccc(C3CC3)c2)c1C(=O)NCC(F)c1ccc(Cl)cc1Cl (centres unmarked) [Compound 2.7, 5-(3-cyclopropylphenoxy)-N-[2-(2,4-dichlorophenyl)-2-fluoro-ethyl]-3-isopropenyl-pyridazine-4-carboxamide]",inhibition of growth at 20 ppm,Glomerella lagenarium,≥ 80%
"C=C(C)COc1nncc(Oc2cccc(C3CC3)c2)c1C(=O)NCC(F)c1ccc(Cl)cc1Cl (centres unmarked) [Compound 2.5, 5-(3-cyclopropylphenoxy)-N-[2-(2,4-dichlorophenyl)-2-fluoro-ethyl]-3-(2-methylallyloxy)pyridazine-4-carboxamide]",inhibition of growth at 20 ppm,Glomerella lagenarium,≥ 80%
"CC(C)Oc1nncc(Oc2cccc(C3CC3)c2)c1C(=O)NCC(F)c1ccc(Cl)cc1Cl (centres unmarked) [Compound 2.4, 5-(3-cyclopropylphenoxy)-N-[2-(2,4-dichlorophenyl)-2-fluoro-ethyl]-3-isopropoxy-pyridazine-4-carboxamide]",inhibition of growth at 20 ppm,Glomerella lagenarium,≥ 80%
"COc1nncc(Oc2cccc(C3CC3)c2)c1C(=O)NCCc1ccc(Cl)cc1Cl [Compound 2.12, 5-(3-cyclopropylphenoxy)-N-[2-(2,4-dichlorophenyl)ethyl]-3-methoxy-pyridazine-4-carboxamide]",inhibition of growth at 20 ppm,Glomerella lagenarium,≥ 80%
"CC(C)c1nncc(Oc2cccc(C3CC3)c2)c1C(=O)NC[C@H](F)c1ccc(Cl)cc1Cl [Compound 2.16, 5-(3-cyclopropylphenoxy)-N-[(2R)-2-(2,4-dichlorophenyl)-2-fluoro-ethyl]-3-isopropyl-pyridazine-4-carboxamide]",inhibition of growth at 20 ppm,Glomerella lagenarium,≥ 80%
"Cc1ncc(Oc2cccc(C3CC3)c2)c(C(=O)NCC(F)c2ccc(Cl)cc2Cl)n1 (centres unmarked) [Compound 1.2, 5-(3-cyclopropylphenoxy)-N-[2-(2,4-dichlorophenyl)-2-fluoro-ethyl]-2-methyl-pyrimidine-4-carboxamide]",control of Monographella nivalis,Monographella nivalis,at least 80%
same,inhibition of growth at 20 ppm,Glomerella lagenarium,≥ 80%
same,control of Alternaria solani,Alternaria solani,at least 80%
same,control of Pyrenophora teres,Pyrenophora teres,at least 80%
same,control of Sclerotinia sclerotiorum,Sclerotinia sclerotiorum,at least 80%
"O=C(NCC(F)c1ccc(Cl)cc1Cl)c1c(Oc2cccc(C3CC3)c2)cnnc1C1CC1 (centres unmarked) [Compound 2.8, 3-cyclopropyl-5-(3-cyclopropylphenoxy)-N-[2-(2,4-dichlorophenyl)-2-fluoro-ethyl]pyridazine-4-carboxamide]",inhibition of growth at 20 ppm,Glomerella lagenarium,≥ 80%
"Cc1nncc(Oc2cccc(C3CC3)c2)c1C(=O)NCC(F)c1ccc(Cl)cc1Cl (centres unmarked) [Compound 2.1, 5-(3-cyclopropylphenoxy)-N-[2-(2,4-dichlorophenyl)-2-fluoro-ethyl]-3-methyl-pyridazine-4-carboxamide]",inhibition of growth at 20 ppm,Glomerella lagenarium,≥ 80%
"CC(C)c1nncc(Oc2cccc(C3CC3)c2)c1C(=O)NCC(F)c1ccc(Cl)cc1Cl (centres unmarked) [Compound 2.9, 5-(3-cyclopropylphenoxy)-N-[2-(2,4-dichlorophenyl)-2-fluoro-ethyl]-3-isopropyl-pyridazine-4-carboxamide]",inhibition of growth at 20 ppm,Glomerella lagenarium,≥ 80%
